In the Kinase Knowledgebase extract (Sharma et al. 2016):

Experiments:
Experiment in all cases: Enzyme Assay
[1] = target: PIK3CG (human) (UniProt P48736)
[2] = target: PIK3CD (Human) (UniProt O00329)
[3] = target: PIK3CA (human) (UniProt P42336)
[4] = target: PIK3CB (Human) (UniProt P42338)
Chain of PIK3CB (Human) (P42338 whole entry, looked up): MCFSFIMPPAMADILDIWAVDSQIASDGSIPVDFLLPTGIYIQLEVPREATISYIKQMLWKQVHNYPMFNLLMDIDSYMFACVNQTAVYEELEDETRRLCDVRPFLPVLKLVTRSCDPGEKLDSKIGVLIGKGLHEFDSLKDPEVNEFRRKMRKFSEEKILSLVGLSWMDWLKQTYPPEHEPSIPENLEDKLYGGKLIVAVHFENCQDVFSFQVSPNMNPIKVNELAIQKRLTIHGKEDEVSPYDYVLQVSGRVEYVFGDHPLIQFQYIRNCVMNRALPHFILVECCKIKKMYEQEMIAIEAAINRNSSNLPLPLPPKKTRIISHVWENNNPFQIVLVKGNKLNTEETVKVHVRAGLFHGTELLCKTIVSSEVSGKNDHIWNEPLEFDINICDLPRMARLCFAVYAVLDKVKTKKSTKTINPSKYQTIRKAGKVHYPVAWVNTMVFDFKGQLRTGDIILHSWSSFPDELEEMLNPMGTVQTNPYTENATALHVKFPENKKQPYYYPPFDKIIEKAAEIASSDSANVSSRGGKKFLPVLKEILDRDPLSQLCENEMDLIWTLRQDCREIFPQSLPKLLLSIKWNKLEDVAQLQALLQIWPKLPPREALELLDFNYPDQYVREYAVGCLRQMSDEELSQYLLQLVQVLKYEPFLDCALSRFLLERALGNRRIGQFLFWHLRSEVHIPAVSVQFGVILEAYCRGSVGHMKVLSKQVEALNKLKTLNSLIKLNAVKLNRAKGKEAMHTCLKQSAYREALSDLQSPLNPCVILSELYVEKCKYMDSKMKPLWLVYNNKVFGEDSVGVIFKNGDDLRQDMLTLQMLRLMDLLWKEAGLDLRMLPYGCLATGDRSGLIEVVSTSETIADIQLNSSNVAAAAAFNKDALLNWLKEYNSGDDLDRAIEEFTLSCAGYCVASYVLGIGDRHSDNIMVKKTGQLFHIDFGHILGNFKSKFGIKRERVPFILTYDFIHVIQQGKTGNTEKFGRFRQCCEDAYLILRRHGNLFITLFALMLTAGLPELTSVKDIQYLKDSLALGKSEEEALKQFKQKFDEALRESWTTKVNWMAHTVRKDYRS

Chain of PIK3CA (human) (P42336 whole entry, looked up): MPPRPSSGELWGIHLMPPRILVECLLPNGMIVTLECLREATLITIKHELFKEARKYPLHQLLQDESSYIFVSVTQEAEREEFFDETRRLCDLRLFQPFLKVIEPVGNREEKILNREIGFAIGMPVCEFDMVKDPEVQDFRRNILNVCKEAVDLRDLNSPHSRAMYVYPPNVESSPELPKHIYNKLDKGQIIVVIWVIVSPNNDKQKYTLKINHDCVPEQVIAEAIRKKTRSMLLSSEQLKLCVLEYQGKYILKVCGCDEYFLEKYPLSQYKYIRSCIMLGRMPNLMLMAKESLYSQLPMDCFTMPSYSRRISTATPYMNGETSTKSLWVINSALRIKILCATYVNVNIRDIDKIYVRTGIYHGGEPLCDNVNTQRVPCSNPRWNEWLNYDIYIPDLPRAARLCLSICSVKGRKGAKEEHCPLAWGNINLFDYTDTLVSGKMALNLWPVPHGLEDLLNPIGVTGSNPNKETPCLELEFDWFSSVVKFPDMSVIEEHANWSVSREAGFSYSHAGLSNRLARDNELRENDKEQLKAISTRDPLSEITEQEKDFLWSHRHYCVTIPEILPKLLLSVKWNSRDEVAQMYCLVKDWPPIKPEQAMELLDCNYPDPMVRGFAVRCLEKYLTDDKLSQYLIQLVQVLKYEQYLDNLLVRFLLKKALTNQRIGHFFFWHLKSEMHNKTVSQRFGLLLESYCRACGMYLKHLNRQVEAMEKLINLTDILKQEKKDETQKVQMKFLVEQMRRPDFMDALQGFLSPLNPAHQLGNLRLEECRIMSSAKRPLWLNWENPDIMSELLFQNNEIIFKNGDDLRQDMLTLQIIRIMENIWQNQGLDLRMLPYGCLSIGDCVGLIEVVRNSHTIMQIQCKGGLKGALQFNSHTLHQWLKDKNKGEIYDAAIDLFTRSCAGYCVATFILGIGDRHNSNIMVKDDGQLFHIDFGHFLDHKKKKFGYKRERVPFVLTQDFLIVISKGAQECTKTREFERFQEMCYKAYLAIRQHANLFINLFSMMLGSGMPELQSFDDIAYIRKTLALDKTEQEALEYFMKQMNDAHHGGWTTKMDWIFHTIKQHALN
Chain of PIK3CD (Human) (O00329 whole entry, looked up): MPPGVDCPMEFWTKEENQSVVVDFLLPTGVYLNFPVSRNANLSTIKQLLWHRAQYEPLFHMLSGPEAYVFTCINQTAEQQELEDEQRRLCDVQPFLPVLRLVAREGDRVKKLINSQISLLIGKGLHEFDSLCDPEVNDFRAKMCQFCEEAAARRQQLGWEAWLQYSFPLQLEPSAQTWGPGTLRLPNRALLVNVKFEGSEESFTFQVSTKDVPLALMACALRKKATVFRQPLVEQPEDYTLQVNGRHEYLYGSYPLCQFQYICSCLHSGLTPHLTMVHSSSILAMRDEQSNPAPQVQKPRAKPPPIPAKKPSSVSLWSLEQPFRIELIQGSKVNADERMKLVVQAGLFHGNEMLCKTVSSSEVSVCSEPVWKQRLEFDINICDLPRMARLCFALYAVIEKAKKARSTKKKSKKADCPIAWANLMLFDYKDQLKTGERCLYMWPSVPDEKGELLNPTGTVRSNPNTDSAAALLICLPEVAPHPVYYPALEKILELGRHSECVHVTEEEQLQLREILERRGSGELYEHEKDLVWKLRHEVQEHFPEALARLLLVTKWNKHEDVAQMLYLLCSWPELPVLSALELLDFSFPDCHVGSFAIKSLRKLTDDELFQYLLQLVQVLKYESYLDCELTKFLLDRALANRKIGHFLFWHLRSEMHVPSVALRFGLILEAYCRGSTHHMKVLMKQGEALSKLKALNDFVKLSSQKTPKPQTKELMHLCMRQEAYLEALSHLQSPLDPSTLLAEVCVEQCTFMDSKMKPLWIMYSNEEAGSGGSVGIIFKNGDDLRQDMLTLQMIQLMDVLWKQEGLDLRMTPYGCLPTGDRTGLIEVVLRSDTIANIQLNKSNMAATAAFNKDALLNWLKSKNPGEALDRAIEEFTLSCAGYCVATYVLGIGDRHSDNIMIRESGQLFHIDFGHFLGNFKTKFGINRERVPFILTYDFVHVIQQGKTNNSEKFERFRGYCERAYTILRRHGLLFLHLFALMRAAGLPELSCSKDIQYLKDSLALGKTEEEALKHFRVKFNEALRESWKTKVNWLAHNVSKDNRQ
Chain of PIK3CG (human) (P48736 whole entry, looked up): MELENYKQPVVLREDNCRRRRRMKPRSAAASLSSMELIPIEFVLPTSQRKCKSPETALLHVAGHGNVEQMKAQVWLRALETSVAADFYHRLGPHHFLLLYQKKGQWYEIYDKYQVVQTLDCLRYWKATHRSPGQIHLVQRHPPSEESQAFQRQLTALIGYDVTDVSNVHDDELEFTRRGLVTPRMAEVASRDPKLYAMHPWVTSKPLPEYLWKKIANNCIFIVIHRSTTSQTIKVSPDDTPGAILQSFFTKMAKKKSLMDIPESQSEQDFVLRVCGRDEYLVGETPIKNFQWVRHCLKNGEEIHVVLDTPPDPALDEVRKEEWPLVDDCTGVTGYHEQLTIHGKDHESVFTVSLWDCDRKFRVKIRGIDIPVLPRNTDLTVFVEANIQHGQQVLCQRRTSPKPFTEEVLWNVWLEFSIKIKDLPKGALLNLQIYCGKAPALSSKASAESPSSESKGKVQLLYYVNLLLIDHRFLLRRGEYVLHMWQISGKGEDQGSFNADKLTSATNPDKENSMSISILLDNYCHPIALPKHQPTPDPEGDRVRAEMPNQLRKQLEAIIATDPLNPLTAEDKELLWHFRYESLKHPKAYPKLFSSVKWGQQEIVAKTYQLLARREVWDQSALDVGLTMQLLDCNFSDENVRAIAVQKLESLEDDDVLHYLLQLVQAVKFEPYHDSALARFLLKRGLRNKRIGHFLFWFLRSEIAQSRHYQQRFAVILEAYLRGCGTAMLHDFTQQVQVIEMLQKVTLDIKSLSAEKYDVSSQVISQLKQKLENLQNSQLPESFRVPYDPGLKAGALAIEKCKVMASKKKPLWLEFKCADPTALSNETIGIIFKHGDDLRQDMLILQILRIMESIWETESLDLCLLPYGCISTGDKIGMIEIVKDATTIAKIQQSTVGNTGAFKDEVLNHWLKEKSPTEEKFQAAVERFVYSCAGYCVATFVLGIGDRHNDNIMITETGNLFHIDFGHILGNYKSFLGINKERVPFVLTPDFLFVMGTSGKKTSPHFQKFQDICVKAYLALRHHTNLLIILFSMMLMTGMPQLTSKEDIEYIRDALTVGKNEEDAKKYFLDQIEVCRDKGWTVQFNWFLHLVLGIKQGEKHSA

| IC50 [1] [µM] | IC50 [2] [µM] | IC50 [3] [µM] | IC50 [4] [µM] | SMILES |
| --- | --- | --- | --- | --- |
| 0.1 to 1 | < 0.1 |  |  | Cc1cccc2cc(C(C)Nc3ncnc4[nH]cnc34)n(C3CCOCC3)c(=O)c12 (stereo not given) |
| 0.1 to 1 |  | > 10 |  | Cc1ccccc1-n1c(Cn2nc(-c3cccc(O)c3)c3c(N)ncnc32)cc2ccccc2c1=O |
| 0.1 to 1 | 0.1 to 1 | > 10 |  | CNc1ncc(Cl)c(N[C@@H](C)c2cc3cccc(C)c3c(=O)n2-c2ccccc2)n1 |
|  | 0.1 to 1 | > 10 | > 10 | Cc1cccc2cc([C@H](C)Nc3cc(N)nc(Cl)n3)n(-c3ccccc3)c(=O)c12 |
|  | > 10 | > 10 | > 10 | Cc1cccc2cc(C(C)Nc3nc(O)ncc3N)n(-c3ccccc3)c(=O)c12 (stereo not given) |
|  | 0.1 to 1 | > 10 | > 10 | Cc1cccc2cc(Cn3nc(I)c4c(N)ncnc43)n(C3CCCCC3)c(=O)c12 |
|  | 0.1 to 1 | > 10 | > 10 | COc1ccc(-c2nn(Cc3cc4cccc(C)c4c(=O)n3-c3ccccc3C)c3ncnc(N)c23)cc1OC |
|  | 0.1 to 1 | > 10 | > 10 | Cc1cccc2cc(Cn3nc(-c4ccn[nH]4)c4c(N)ncnc43)n(-c3ccccc3F)c(=O)c12 |
|  | < 0.1 | > 10 | > 10 | CCC(Nc1ncnc2[nH]cnc12)c1cc2ccccc2c(=O)n1-c1ccccc1 (stereo not given) |
| 0.1 to 1 |  | > 10 |  | Cc1ccccc1-n1c(Cn2nc(-c3cc(O)cc(F)c3)c3c(N)ncnc32)cc2cccc(F)c2c1=O |
| 0.1 to 1 | < 0.1 | > 10 |  | CCC(Nc1ncnc2[nH]cnc12)c1cc2cccc(C)c2c(=O)n1-c1ccccc1C (stereo not given) |
| 0.1 to 1 | < 0.1 | > 10 |  | Cc1cccc2cc(Cn3nc(C(F)F)c4c(N)ncnc43)n(-c3ccccc3)c(=O)c12 |
| 0.1 to 1 | 0.1 to 1 |  |  | CC(=O)Nc1nc2ccc(-c3nn(Cc4cc5cccc(C)c5c(=O)n4-c4ccccc4)c4ncnc(N)c34)cc2o1 |
|  | > 10 | > 10 | > 10 | Cc1cccc2cc([C@H](C)NC3CCOCC3)n(-c3ccccc3)c(=O)c12 |
|  | < 0.1 | > 10 | > 10 | CC(=O)Nc1nc2ccc(-c3nn(Cc4cc5cccc(C)c5c(=O)n4-c4ccccc4C)c4ncnc(N)c34)cc2o1 |
| 0.1 to 1 |  | > 10 |  | Cc1cccc2cc(Cn3nc(-c4cccc(O)c4)c4c(N)ncnc43)n(C3CCCC3)c(=O)c12 |
|  | < 0.1 | > 10 | > 10 | CCc1nn(Cc2cc3cccc(C)c3c(=O)n2-c2ccccc2C)c2ncnc(N)c12 |
|  | < 0.1 | 0.1 to 1 | < 0.1 | Cc1cccc2cc([C@H](C)Nc3ncnc4[nH]cc(Br)c34)n(C3CC3)c(=O)c12 |
|  | 0.1 to 1 | > 10 | > 10 | Cc1ccccc1-n1c(Cn2nc(-c3ccn[nH]3)c3c(N)ncnc32)cc2cccc(C)c2c1=O |
| 0.1 to 1 | < 0.1 | > 10 |  | C=C(C)c1nn(Cc2cc3cccc(C)c3c(=O)n2-c2ccccc2)c2ncnc(N)c12 |
|  | 0.1 to 1 | > 10 | > 10 | Cc1ccccc1-n1c(Cn2nc(I)c3c(N)ncnc32)cc2cccc(F)c2c1=O |

| IC50 [1] [µM] | IC50 [2] [µM] | IC50 [3] [µM] | IC50 [4] [µM] | SMILES |
| --- | --- | --- | --- | --- |
|  | > 10 | > 10 | > 10 | Cc1cccc2cc([C@H](C)Nc3cc(N)nc(Cl)n3)n(C3CC3)c(=O)c12 |
| 0.1 to 1 | 0.1 to 1 | > 10 |  | COc1ccc(-c2nn(Cc3cc4cccc(C)c4c(=O)n3-c3ccccc3F)c3ncnc(N)c23)cc1OC |
| 0.1 to 1 | < 0.1 | > 10 |  | CCC(Nc1ncnc2[nH]cnc12)c1cc2cccc(C)c2c(=O)n1C1CCC1 (stereo not given) |
|  | > 10 | > 10 | > 10 | Cc1cccc2cc(Cn3nc(C4=CCOCC4)c4c(N)ncnc43)n(-c3ccccc3)c(=O)c12 |
| 0.1 to 1 | < 0.1 |  |  | C=Cc1nn(Cc2cc3cccc(C)c3c(=O)n2-c2ccccc2)c2ncnc(N)c12 |
|  | < 0.1 | 0.1 to 1 | < 0.1 | Cc1cccc2cc([C@H](C)Nc3ncnc4[nH]cc(F)c34)n(C3CC3)c(=O)c12 |
| 0.1 to 1 | 0.1 to 1 | > 10 |  | Cc1cccnc1-n1c(Cn2nc(I)c3c(N)ncnc32)cc2cccc(C)c2c1=O |
| 0.1 to 1 |  |  |  | Cc1cccc2cc(Cn3nc(I)c4c(N)ncnc43)n(-c3ccccc3F)c(=O)c12 |
|  | < 0.1 | < 0.1 | 0.1 to 1 | Cc1cccc2cc(Cn3nc(-c4ccc5nc(N)sc5c4)c4c(N)ncnc43)n(-c3ccccc3)c(=O)c12 |
| 0.1 to 1 | 0.1 to 1 |  |  | Cc1cccc2cc(Cn3nc(-c4ccc(Cl)c(O)c4)c4c(N)ncnc43)n(C3CCCC3)c(=O)c12 |
|  | < 0.1 | > 10 | 0.1 to 1 | Cc1cccc2cc(C(C)Nc3ncnc4[nH]cnc34)n(C3CCN(C)CC3)c(=O)c12 (stereo not given) |
|  | < 0.1 | 0.1 to 1 | < 0.1 | Cc1cccc2cc([C@H](C)Nc3ncnc4[nH]cc(C#N)c34)n(C3CC3)c(=O)c12 |
| < 0.1 | 0.1 to 1 |  |  | Cc1cccc2cc(Cn3nc(-c4ccc5nc(N)oc5c4)c4c(N)ncnc43)n(-c3ccccc3)c(=O)c12 |
|  | 0.1 to 1 | > 10 | > 10 | Cc1cccc2cc(Cn3nc(-c4ccc(O)c(F)c4)c4c(N)ncnc43)n(-c3ccccc3F)c(=O)c12 |
|  | > 10 | > 10 | > 10 | Cc1cccc2cc([C@H](C)Nc3ncnc4[nH]c(O)nc34)n(-c3ccccc3)c(=O)c12 |
| 0.1 to 1 |  | > 10 |  | Cc1cccc2cc(Cn3nc(-c4cn[nH]c4)c4c(N)ncnc43)n(-c3ccccc3F)c(=O)c12 |
| 0.1 to 1 |  | > 10 |  | CCc1ccccc1-n1c(Cn2nc(C#C[C@@H](C)O)c3c(N)ncnc32)cc2cccc(C)c2c1=O |
| 0.1 to 1 | < 0.1 |  |  | Cc1cccc2cc(C(C)Nc3ncnc4[nH]cnc34)n(C(C)C)c(=O)c12 (stereo not given) |
|  | < 0.1 | 0.1 to 1 | < 0.1 | Cc1cccc2cc(C(C)Nc3nc(N)nc4[nH]cnc34)n(-c3ccccc3)c(=O)c12 (stereo not given) |
| 0.1 to 1 | < 0.1 |  |  | Cc1cccc2cc(C(C)Nc3ncnc4[nH]cnc34)n(-c3cccc(F)c3)c(=O)c12 (stereo not given) |
|  | < 0.1 | < 0.1 | 0.1 to 1 | Cc1cccc2cc(Cn3nc(-c4ccc5oc(N)nc5c4)c4c(N)ncnc43)n(C3CC3)c(=O)c12 |

| IC50 [1] [µM] | IC50 [2] [µM] | IC50 [3] [µM] | IC50 [4] [µM] | SMILES |
| --- | --- | --- | --- | --- |
|  | < 0.1 | > 10 | > 10 | CCC(Nc1ncnc2[nH]cnc12)c1cc2cccc(C)c2c(=O)n1-c1cc(F)cc(F)c1 (stereo not given) |
|  | 0.1 to 1 | > 10 | > 10 | Cc1cccc2cc(Cn3nc(I)c4c(N)ncnc43)n(C)c(=O)c12 |
|  | < 0.1 | 0.1 to 1 | < 0.1 | Cc1cccc2cc([C@H](C)Nc3nc(N)nc4[nH]cnc34)n(-c3ccccc3)c(=O)c12 |
|  | < 0.1 | > 10 | 0.1 to 1 | Cc1cccc2cc([C@H](C)Nc3ncnc4[nH]cnc34)n(-c3cccc(F)c3)c(=O)c12 |
|  | < 0.1 | 0.1 to 1 | < 0.1 | Cc1cccc2cc([C@H](C)Nc3ncnc4[nH]cc(Cl)c34)n(-c3ccccc3)c(=O)c12 |
| 0.1 to 1 |  |  |  | Cc1cccc2cc(Cn3nc(-c4cc(O)cc(F)c4)c4c(N)ncnc43)n(-c3ccccc3OCCN3CCOCC3)c(=O)c12 |
|  | > 10 | > 10 | > 10 | Cc1cccc2cc([C@H](C)Nc3ncnc4[nH]c(Cl)nc34)n(C3CC3)c(=O)c12 |
|  | 0.1 to 1 | > 10 | > 10 | Nc1ncnc2c1c(-c1cn[nH]c1)nn2Cc1cc2cccc(F)c2c(=O)n1-c1ccccc1F |
|  | < 0.1 | 0.1 to 1 | 0.1 to 1 | Cc1cccc2cc(Cn3nc(-c4ccc5oc(N)nc5c4)c4c(N)ncnc43)n(C3CCC3)c(=O)c12 |
|  | > 10 | > 10 | > 10 | Cc1cccc2cc(C(C)Nc3nc(Cl)ncc3N)n(-c3ccccc3)c(=O)c12 (stereo not given) |
|  | 0.1 to 1 | > 10 | > 10 | Cc1ccccc1-n1c(Cn2nc(CCC(N)=O)c3c(N)ncnc32)cc2cccc(C)c2c1=O |
|  | 0.1 to 1 | > 10 | > 10 | Cc1cccc2cc(Cn3nc(-c4ccc(O)c(Cl)c4)c4c(N)ncnc43)n(-c3ccccc3F)c(=O)c12 |
|  | 0.1 to 1 | > 10 | > 10 | Cc1cccc2cc([C@H](C)Nc3nc(Cl)ncc3Cl)n(-c3ccccc3)c(=O)c12 |
|  | < 0.1 | 0.1 to 1 | < 0.1 | Cc1cccc2cc([C@H](C)Nc3ncnc4[nH]cnc34)n(-c3ccc(F)cc3)c(=O)c12 |
|  | > 10 | > 10 | > 10 | Cc1cccc2cc([C@H](C)Nc3nc(N)ncc3C(N)=O)n(C3CC3)c(=O)c12 |
|  | < 0.1 | 0.1 to 1 | < 0.1 | C[C@H](Nc1ncnc2[nH]cnc12)c1cc2cccc(Cl)c2c(=O)n1C1CC1 |
|  | 0.1 to 1 | > 10 | > 10 | Cc1ccccc1-n1c(Cn2nc(-c3ccc(O)cc3)c3c(N)ncnc32)cc2cccc(C)c2c1=O |
| 0.1 to 1 |  |  |  | Cc1cccc2cc(Cn3nc(-c4ccc(O)cc4)c4c(N)ncnc43)n(-c3ccccc3F)c(=O)c12 |
| 0.1 to 1 | < 0.1 |  |  | Cc1cccc2cc(Cn3nc(-c4cn[nH]c4)c4c(N)ncnc43)n(-c3ccccc3)c(=O)c12 |
| 0.1 to 1 |  | > 10 |  | Cc1ccccc1-n1c(Cn2nc(Cl)c3c(N)ncnc32)cc2cccc(C)c2c1=O |
|  | 0.1 to 1 | > 10 | > 10 | Cc1ccccc1-n1c(Cn2nc(C#C[C@@H](C)O)c3c(N)ncnc32)cc2cccc(F)c2c1=O |

| SMILES | IC50 [1] [µM] | IC50 [2] [µM] | IC50 [3] [µM] | IC50 [4] [µM] |
| --- | --- | --- | --- | --- |
| Cc1ccccc1-n1c(Cn2nc(C(N)=O)c3c(N)ncnc32)cc2cccc(C)c2c1=O | 0.1 to 1 | 0.1 to 1 | > 10 |  |
| COC(=O)c1nn(Cc2cc3cccc(C)c3c(=O)n2-c2ccccc2C)c2ncnc(N)c12 |  | 0.1 to 1 | > 10 | > 10 |
